Source: article PMC7982320 (Pharmacology Research & Perspectives, 2021)

Key:
[1] = healthy male subjects, single oral dose of 60 mg 14C‐DFZ; cited from earlier work
[2] = cited from earlier work
CYP1A2 = assay: in vitro; type: in vitro ADME, human; conditions: human
CYP2B6 = assay: in vitro; type: in vitro ADME, human; conditions: human, 10 µM
CYP3A4 = assay: in vitro; conditions: human
[3] = CYP1A2 enzyme activity fold induction, donor one
[4] = CYP1A2 enzyme activity fold induction, donor three
[5] = CYP1A2 enzyme activity fold induction, donor two
[6] = CYP1A2 mRNA fold induction, donor one
[7] = CYP1A2 mRNA fold induction, donor three
[8] = CYP1A2 mRNA fold induction, donor two

SMILES: CC1=N[C@]2(C(=O)CO)[C@@H](C[C@H]3[C@@H]4CCC5=CC(=O)C=C[C@]5(C)[C@H]4[C@@H](O)C[C@@]32C)O1 [21‐desDFZ, 21‐desacetyl deflazacort]
- share of 0–24 h plasma levels of total radioactivity [1]: 33%
- protein binding in human plasma [2]: about 40%

SMILES: COc1c(N2CCNC(C)C2)c(F)cc2c(=O)c(C(=O)O)cn(C3CC3)c12 (centres unmarked) [Gatifloxacin, reference compound]
- fold induction at 48 h, 10 µM (CYP1A2; [3]): 0.744
- fold induction at 48 h, 10 µM (CYP1A2; [4]): 0.996
- fold induction at 48 h, 10 µM (CYP1A2; [5]): 0.805
- fold induction at 48 h, 10 µM (CYP1A2; [6]): 0.941
- fold induction at 48 h, 10 µM (CYP1A2; [7]): 0.898
- fold induction at 48 h, 10 µM (CYP1A2; [8]): 1.12
- fold induction at 48 h, 10 µM (CYP2B6; CYP2B6 enzyme activity fold induction, donor one): 0.719
- fold induction at 48 h, 10 µM (CYP2B6; CYP2B6 enzyme activity fold induction, donor three): 0.875
- fold induction at 48 h, 10 µM (CYP2B6; CYP2B6 enzyme activity fold induction, donor two): 1.05
- fold induction at 48 h, 10 µM (CYP2B6; CYP2B6 mRNA fold induction, donor one): 0.965
- fold induction at 48 h, 10 µM (CYP2B6; CYP2B6 mRNA fold induction, donor three): 0.989
- fold induction at 48 h, 10 µM (CYP2B6; CYP2B6 mRNA fold induction, donor two): 0.685
- fold induction at 48 h, 10 µM (CYP3A4; CYP3A4 enzyme activity fold induction, donor one): 0.881
- fold induction at 48 h, 10 µM (CYP3A4; CYP3A4 enzyme activity fold induction, donor three): 1.44
- fold induction at 48 h, 10 µM (CYP3A4; CYP3A4 enzyme activity fold induction, donor two): 0.861
- fold induction at 48 h, 10 µM (CYP3A4; CYP3A4 mRNA fold induction, donor one): 0.612
- fold induction at 48 h, 10 µM (CYP3A4; CYP3A4 mRNA fold induction, donor three): 1.18
- fold induction at 48 h, 10 µM (CYP3A4; CYP3A4 mRNA fold induction, donor two): 0.591

SMILES: COc1ccc2[nH]c([S+]([O-])Cc3ncc(C)c(OC)c3C)nc2c1 (centres unmarked) [Omeprazole, reference compound]
- fold induction at 48 h, 100 µM (CYP1A2; [3]): 3.55
- fold induction at 48 h, 100 µM (CYP1A2; [4]): 8.36
- fold induction at 48 h, 100 µM (CYP1A2; [5]): 5.48
- fold induction at 48 h, 100 µM (CYP1A2; [6]): 39.6
- fold induction at 48 h, 100 µM (CYP1A2; [7]): 40.5
- fold induction at 48 h, 100 µM (CYP1A2; [8]): 34.8
